# In paper PMC12708883 (Frontiers in Microbiology, 2025):
# T1: YhjE (Escherichia coli, UniProt P37643)
# T1 sequence (P37643 1-440): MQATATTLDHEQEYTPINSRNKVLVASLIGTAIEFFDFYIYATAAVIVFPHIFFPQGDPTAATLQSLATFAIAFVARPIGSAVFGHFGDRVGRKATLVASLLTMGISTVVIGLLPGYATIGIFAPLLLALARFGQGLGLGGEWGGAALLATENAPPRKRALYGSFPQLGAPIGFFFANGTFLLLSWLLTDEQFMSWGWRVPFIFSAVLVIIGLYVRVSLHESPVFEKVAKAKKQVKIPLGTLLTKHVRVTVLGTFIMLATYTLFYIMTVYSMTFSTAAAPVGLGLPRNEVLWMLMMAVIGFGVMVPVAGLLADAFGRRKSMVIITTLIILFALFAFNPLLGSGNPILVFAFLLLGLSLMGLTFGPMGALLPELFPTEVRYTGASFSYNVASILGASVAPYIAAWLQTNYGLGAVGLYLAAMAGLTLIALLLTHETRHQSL
# How the values were obtained:
# BrnQ = molecular target: T2, BrnQ (Escherichia coli, UniProt P0AD99); experiment: radiolabelled uptake into whole cells, […] min; type: cell-based; settings: sole carrier strain, M9 + 0.2% glucose, 37 °C; labelled compound
# T2 construct: native chromosomal gene, sole carrier in livKHMGF yhjE double mutant cells
# T2 sequence (P0AD99 whole entry): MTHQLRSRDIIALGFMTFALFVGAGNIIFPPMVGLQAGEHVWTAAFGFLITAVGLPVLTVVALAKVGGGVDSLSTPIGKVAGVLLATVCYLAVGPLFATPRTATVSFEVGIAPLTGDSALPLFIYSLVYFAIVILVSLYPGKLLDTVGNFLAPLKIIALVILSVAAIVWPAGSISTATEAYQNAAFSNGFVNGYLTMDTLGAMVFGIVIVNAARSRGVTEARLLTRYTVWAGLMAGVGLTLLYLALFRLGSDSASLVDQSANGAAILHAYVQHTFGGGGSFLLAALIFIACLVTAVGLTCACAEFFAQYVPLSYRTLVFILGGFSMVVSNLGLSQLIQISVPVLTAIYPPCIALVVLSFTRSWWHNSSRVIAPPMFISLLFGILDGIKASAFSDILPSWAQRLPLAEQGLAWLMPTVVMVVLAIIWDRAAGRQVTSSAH
# YhjE [1] = molecular target: YhjE (Escherichia coli, UniProt P37643, P55S); experiment: radiolabelled uptake into whole cells, […] min; type: cell-based; settings: 50 μM substrate, M9 + 0.2% glucose, 37 °C; B2933 with mutant pBR-yhjE; labelled compound
# Sequence of YhjE (Escherichia coli, UniProt P37643, P55S) (P37643 whole entry P55S): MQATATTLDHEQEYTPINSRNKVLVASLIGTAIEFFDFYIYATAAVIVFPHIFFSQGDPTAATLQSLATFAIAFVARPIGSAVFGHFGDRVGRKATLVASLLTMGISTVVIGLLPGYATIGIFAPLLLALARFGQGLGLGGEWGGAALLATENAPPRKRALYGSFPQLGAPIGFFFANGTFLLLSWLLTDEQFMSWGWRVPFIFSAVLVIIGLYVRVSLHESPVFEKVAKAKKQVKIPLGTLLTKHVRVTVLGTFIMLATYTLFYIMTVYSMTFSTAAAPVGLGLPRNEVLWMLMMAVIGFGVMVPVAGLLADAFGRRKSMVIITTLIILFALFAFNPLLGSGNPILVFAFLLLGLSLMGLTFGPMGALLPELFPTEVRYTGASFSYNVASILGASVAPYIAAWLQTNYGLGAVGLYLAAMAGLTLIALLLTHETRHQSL
# YhjE [2] = molecular target: YhjE (Escherichia coli, UniProt P37643, M359I); experiment: radiolabelled uptake into whole cells, […] min; type: cell-based; settings: 50 μM substrate, M9 + 0.2% glucose, 37 °C; B2933 with mutant pBR-yhjE; labelled compound
# Sequence of YhjE (Escherichia coli, UniProt P37643, M359I) (P37643 whole entry M359I): as the sequence (P37643 whole entry P55S) above, with S55P, M359I counted along it
# YhjE [3] = molecular target: YhjE (Escherichia coli, UniProt P37643, S271F/V290M); experiment: radiolabelled uptake into whole cells, […] min; type: cell-based; settings: 50 μM substrate, M9 + 0.2% glucose, 37 °C; B2933 with mutant pBR-yhjE; labelled compound
# Sequence of YhjE (Escherichia coli, UniProt P37643, S271F/V290M) (P37643 whole entry S271F/V290M): as the sequence (P37643 whole entry P55S) above, with S55P, S271F, V290M counted along it
# YhjE [4] = molecular target: YhjE (Escherichia coli, UniProt P37643, T273I); experiment: radiolabelled uptake into whole cells, […] min; type: cell-based; settings: 50 μM substrate, M9 + 0.2% glucose, 37 °C; B2933 with mutant pBR-yhjE; labelled compound
# Sequence of YhjE (Escherichia coli, UniProt P37643, T273I) (P37643 whole entry T273I): as the sequence (P37643 whole entry P55S) above, with S55P, T273I counted along it
# YhjE [5] = molecular target: YhjE (Escherichia coli, UniProt P37643, T276I); experiment: radiolabelled uptake into whole cells, […] min; type: cell-based; settings: 50 μM substrate, M9 + 0.2% glucose, 37 °C; B2933 with mutant pBR-yhjE; labelled compound
# Sequence of YhjE (Escherichia coli, UniProt P37643, T276I) (P37643 whole entry T276I): as the sequence (P37643 whole entry P55S) above, with S55P, T276I counted along it
# YhjE [6] = molecular target: T1, YhjE; experiment: inhibition of L-[3H]isoleucine uptake into whole cells, […] min; type: cell-based; settings: 50 μM L-[3H]isoleucine, M9 + 0.2% glucose, 37 °C; B2394[pBR-yhjE]; single replicate
# LIV-I (LivJFGHM) = molecular target: T3, LIV-I (LivJFGHM) (Escherichia coli, UniProt P0AD96); experiment: radiolabelled uptake into whole cells, […] min; type: cell-based; settings: sole carrier strain, M9 + 0.2% glucose, 37 °C; labelled compound
# T3 construct: gene livJ; native chromosomal genes, sole carrier in brnQ yhjE double mutant cells
# T3 sequence (P0AD96 24-367): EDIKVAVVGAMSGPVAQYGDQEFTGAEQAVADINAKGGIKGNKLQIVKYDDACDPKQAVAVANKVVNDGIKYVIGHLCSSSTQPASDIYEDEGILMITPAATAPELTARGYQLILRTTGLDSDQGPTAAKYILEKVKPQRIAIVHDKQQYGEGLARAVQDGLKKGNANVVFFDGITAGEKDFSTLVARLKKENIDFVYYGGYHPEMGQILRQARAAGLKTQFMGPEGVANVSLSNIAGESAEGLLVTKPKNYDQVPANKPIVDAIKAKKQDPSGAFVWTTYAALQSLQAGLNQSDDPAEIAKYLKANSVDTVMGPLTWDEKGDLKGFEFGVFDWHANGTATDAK
# T3 sequence (P0AEX7 whole entry partner): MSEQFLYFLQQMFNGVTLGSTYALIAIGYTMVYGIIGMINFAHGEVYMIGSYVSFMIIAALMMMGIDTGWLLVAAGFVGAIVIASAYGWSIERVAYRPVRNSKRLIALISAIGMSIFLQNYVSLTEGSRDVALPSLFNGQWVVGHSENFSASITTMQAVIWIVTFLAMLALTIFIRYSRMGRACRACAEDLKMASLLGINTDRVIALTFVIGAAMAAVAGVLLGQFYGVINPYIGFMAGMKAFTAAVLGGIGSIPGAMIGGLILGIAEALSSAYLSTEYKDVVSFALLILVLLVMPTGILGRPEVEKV
# T3 sequence (P22729 whole entry partner): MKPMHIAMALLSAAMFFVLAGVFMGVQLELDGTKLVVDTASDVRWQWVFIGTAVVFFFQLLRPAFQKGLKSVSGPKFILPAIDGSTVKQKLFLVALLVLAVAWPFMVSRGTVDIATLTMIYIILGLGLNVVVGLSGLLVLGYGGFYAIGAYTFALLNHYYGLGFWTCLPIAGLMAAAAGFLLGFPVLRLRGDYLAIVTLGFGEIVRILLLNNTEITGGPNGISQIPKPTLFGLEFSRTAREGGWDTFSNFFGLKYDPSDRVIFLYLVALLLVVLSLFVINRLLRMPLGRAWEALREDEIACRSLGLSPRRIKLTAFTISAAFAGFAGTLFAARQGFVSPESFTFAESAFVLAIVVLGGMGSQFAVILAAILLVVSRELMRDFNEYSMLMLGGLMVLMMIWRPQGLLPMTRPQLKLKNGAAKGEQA
# T3 sequence (P22731 whole entry partner): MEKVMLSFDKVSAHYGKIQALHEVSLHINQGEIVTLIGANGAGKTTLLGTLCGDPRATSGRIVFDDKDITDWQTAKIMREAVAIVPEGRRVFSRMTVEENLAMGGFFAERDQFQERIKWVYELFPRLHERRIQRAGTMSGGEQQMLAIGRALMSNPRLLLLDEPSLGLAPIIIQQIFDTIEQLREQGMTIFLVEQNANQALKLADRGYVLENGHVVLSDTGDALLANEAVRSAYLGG
# T3 sequence (P0A9S7 whole entry partner): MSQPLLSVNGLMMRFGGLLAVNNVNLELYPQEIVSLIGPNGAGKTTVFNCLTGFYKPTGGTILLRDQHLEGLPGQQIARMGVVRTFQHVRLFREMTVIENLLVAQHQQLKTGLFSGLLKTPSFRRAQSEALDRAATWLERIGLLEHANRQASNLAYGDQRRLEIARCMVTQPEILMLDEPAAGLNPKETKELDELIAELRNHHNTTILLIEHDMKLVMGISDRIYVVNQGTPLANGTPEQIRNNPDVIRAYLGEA
# [7] = substrate: CC[C@H](C)[C@H](N)C(=O)O; experiment: radiolabelled uptake into whole cells; type: cell-based, Escherichia coli; settings: M9 + 0.2% glucose, 37 °C, B2933[pUC-yhjE], proton symport, labelled compound
# [8] = substrate: CC(C)[C@H](N)C(=O)O; experiment: radiolabelled uptake into whole cells; type: cell-based, Escherichia coli; settings: M9 + 0.2% glucose, 37 °C, B2933[pUC-yhjE], proton symport, labelled compound
Molecule,uptake rate (BrnQ),uptake rate (YhjE [1]),uptake rate (YhjE [2]),uptake rate (YhjE [3]),uptake rate (YhjE [4]),uptake rate (YhjE [5]),% inhibition at 30-fold molar excess (YhjE [6]),also measured
CC(C)[C@H](N)C(=O)O [L-valine],"Comparison of L-valine–specific activity of YhjE, LIV-I, and BrnQ",–,–,–,–,–,–,–
CC(C)C[C@H](N)C(=O)O [L-leucine],–,"In every case, L-leucine uptake was elevated relative to cells harboring the wild-type pBR-yhjE",YhjE M359I variant exhibited L-leucine transport activity more than twofold higher than the wild type,"In every case, L-leucine uptake was elevated relative to cells harboring the wild-type pBR-yhjE","In every case, L-leucine uptake was elevated relative to cells harboring the wild-type pBR-yhjE",The lowest effect was observed for the T276I substitution,–,–
N[C@@H](Cc1ccc(O)cc1)C(=O)O [L-tyrosine],–,–,–,–,–,–,"L-tyrosine and L-cysteine, which are structurally unrelated to branched-chain amino acids, produced pronounced inhibitory effects",–
CC[C@H](C)[C@H](N)C(=O)O [L-isoleucine],"Comparison of L-isoleucine–specific activity of YhjE, LIV-I, and BrnQ",L-isoleucine uptake was concomitantly reduced,L-isoleucine uptake was concomitantly reduced,L-isoleucine uptake was concomitantly reduced,L-isoleucine uptake was concomitantly reduced,L-isoleucine uptake was concomitantly reduced,–,"uptake rate (LIV-I (LivJFGHM)): Comparison of L-isoleucine–specific activity of YhjE, LIV-I, and BrnQ"
N[C@@H](CS)C(=O)O [L-cysteine],–,–,–,–,–,–,"L-tyrosine and L-cysteine, which are structurally unrelated to branched-chain amino acids, produced pronounced inhibitory effects",–
YhjE (Escherichia coli K-12) (protein) MQATATTLDHEQEYTPINSRNKVLVASLIGTAIEFFDFYIYATAAVIVFPHIFFPQGDPTAATLQSLATFAIAFVARPIGSAVFGHFGDRVGRKATLVASLLTMGISTVVIGLLPGYATIGIFAPLLLALARFGQGLGLGGEWGGAALLATENAPPRKRALYGSFPQLGAPIGFFFANGTFLLLSWLLTDEQFMSWGWRVPFIFSAVLVIIGLYVRVSLHESPVFEKVAKAKKQVKIPLGTLLTKHVRVTVLGTFIMLATYTLFYIMTVYSMTFSTAAAPVGLGLPRNEVLWMLMMAVIGFGVMVPVAGLLADAFGRRKSMVIITTLIILFALFAFNPLLGSGNPILVFAFLLLGLSLMGLTFGPMGALLPELFPTEVRYTGASFSYNVASILGASVAPYIAAWLQTNYGLGAVGLYLAAMAGLTLIALLLTHETRHQSL,–,–,–,–,–,–,–,Km [7]: 70.5 µM; Km [8]: 86.7 µM
